Assay results: PMC7016953 (Cells, 2020)

How the values were obtained:
[1] = test system: PC12 cells (native TRPC3 channel complexes); assay: Whole-cell patch-clamp recordings in PC12 cells; format: cell-based, rat; settings: 50 µM artemisinin, whole cell
Protocol: The recordings of TRPC3, TRPC6, or TRPC7 membrane currents in HEK293 or PC12 cells were realized by using a Multiclamp 700B amplifier with a Digidata 1440A digitizer controlled by the PClamp 10 software (all Molecular Devices, Sunnyvale, CA, U.S.A.). Recordings were obtained at room temperature either in the whole-cell or in an outside-out configuration as indicated. Cells were seeded as described above, but at lower density, mounted in a chamber (Warner Instruments, Hamden, CT; U.S.A.), placed onto the stage of an inverted microscope, and perfused with required solution. The standard extracellular solution contained 140 mM NaCl, 5 mM CsCl, 2 mM MgCl2, 1 mM CaCl2, 10 mM HEPES, and 0.035% BSA adjusted to pH 7.4 with NaOH. The composition of standard intracellular solution was 140 mM CsCl, 1 mM MgCl2, 5 mM EGTA, and 10 mM HEPES adjusted to pH 7.25 with CsOH; the osmolarity was 295 mOsm l^−1. In outside-out measurements, the pipette solution contained 5 mM EGTA and 1.1 mM CaCl2 to achieve a calculated free Ca^2+ concentration of 100 nM.
Patch pipettes were pulled from borosilicate glass capillaries BG150F-8P (Science Products, Hofheim, Germany) with a PIP6 pipette puller (HEKA Elektronik, Lambrecht, Germany). […] In all whole-cell measurements, the series resistance was lower than 13 MΩ, and compensated by 70%. If the access was unstable during the experiment (increase in series resistance by more than 15% at the end of the experiment), the cell was omitted from the analysis. To record current/voltage (I/V) curves, voltage ramps (400 mV s^−1) ranging from –100 to +100 mV were applied. Currents were filtered at 3 kHz with a four-pole Bessel filter and sampled at 10 kHz. […]
Figure 9 Artemisinin-induced ionic currents in HEK293 cells and in PC12 cells are sensitive to established TRPC3 inhibitors. […] Concentration–response curves were normalized to responses measured without an inhibitor (controls), and IC50 values were obtained by fitting a four-parameter Hill equation to the data. […]

TRPM8 = test system: T1, TRPM8; assay: Selectivity profiling, fluo-4 [Ca2+]i response, TRPM8; format: cell-based; settings: 100 µM
T1 construct: expressed in transfected cells
Protocol: The primary compound screen and the generation of concentration response curves in HEK293 cells or in PC12 cells were performed by using a custom-made fluorescence plate imager built into a robotic liquid handling station equipped with a 96-tip multichannel head (Freedom Evo 150, Tecan, Männedorf, Switzerland) as described previously. To this end, trypsinized cell suspensions were loaded with 4 µM fluo-4/AM (Invitrogen, Thermo Fisher Scientific, Waltham, MA, U.S.A.) in cell culture medium for 30 min at 37 °C. After brief centrifugation, cells were resuspended in HBS and dispensed into black pigmented, clear-bottom 384-well plates (Greiner µClear, Frickenhausen, Germany). Plates were mounted on the imager, and fluorescence signals were recorded with a cooled Zyla 5.5 camera (Andor, Belfast, UK) through a 515 nm long pass filter. The image acquisition was controlled by the µManager software (http://micro-manager.org), and excitation with a LED array (470 nm) was synchronized by the camera trigger output. […] When inhibitory potencies were evaluated, a second pipetting step with the respective reference agonist was performed. Fluorescence intensities were calculated from image stacks for each well with ImageJ (National Institutes of Health, Bethesda, MD, U.S.A.), corrected for background signals, and normalized to the initial intensities (F/F0). […]

`C[C@@H]1CC[C@H]2[C@@H](C)C(=O)O[C@@H]3O[C@@]4(C)CC[C@@H]1[C@]32OO4` [artemisinin] was tested, and the “currents in PC12 cells” value [1] was “induced a Ca^2+ influx and TRPC3-like currents” and the “[Ca2+]i response, TRPM8” value (TRPM8) was “none of the cell lines responded”.
